One test deals with pY705-STAT3. The test can be described thus: IL-6–induced pY705-STAT3 in splenic CD8+ T cells, Western blotting. The format is cell-based. The note with it: mouse splenic CD8+ T cells. (In general: Immunoblotting shows a protein as a band on a membrane.)
In test [1] the target is T1, STAT3-exportin 7 interaction (Homo sapiens, UniProt Q9UIA9).
T1 construct: homogenates prepared from HCT116 colon tumors from mice treated with PO- and PS-acet.-STAT3 peptides; from tissue; host or cells: HCT116 xenograft tumours grown in NSG mice
Kind of test: Immunoprecipitation from HCT116 tumor homogenates, STAT3-exportin 7 interaction. The class given is binding. Conditions: homogenates of HCT116 tumors from treated mice, Western blotting. Here is the method:
Whole cell lysates or tissue homogenates were prepared by using RIPA lysis buffer (50 mM Tris at pH 7.4, 150 mM NaCl, 1 mM EDTA, 0.5% NP-40, 1 mM NaF, 15% glycerol, and 20 mM β-glycerophosphate). A protease inhibitor cocktail (Mini Protease Inhibitor Cocktail; Roche) and a tyrosine phosphatase inhibitor, sodium orthovanadate (Na3VO4, 1 mM), were added freshly to the lysis buffer. Protein amounts were determined by BCA using a Thermo Fisher Scientific kit. Normalized protein amounts were subjected to an SDS-PAGE and transferred onto a nitrocellulose membrane for Western blotting. Proteins were visualized with a chemiluminescent detection kit (Pierce, Thermo Fisher Scientific). The protein levels for STAT1 (sc-346, E-23), STAT3 (sc-482, C-20), STAT5 (sc-74442, A-9), Crm1 (exportin 1) (sc-5595, H-300), CAS (exportin 2) (sc-271537, H-2), exportin 5 (sc-66885, H-300), and exportin 7 (sc-98639, H-82) were determined using antibodies from Santa Cruz Biotechnology Inc. Anti–exportin 3 (exportin T, 630622, LOS1 05-1525), anti–exportin 4 (3499-1), and anti–exportin 6 (11408-1-AP) were from MilliporeSigma, Epitomics, and Proteintech, respectively. […]
(B) PS-acet.-STAT3 peptide downregulates STAT3 phosphorylation, assessed by Western blotting using tumor homogenates prepared from tumors shown in A. […]

The test system of test [2] is IL-6–induced STAT3 phosphorylation. Kind of test: IL-6–induced STAT3 phosphorylation, Western blotting. The format is cell-based. The note with it: preincubated 2 hours, 20 ng/mL IL-6 for 30 minutes. Here is the method:
Figure 8 PS-Gp130 and PS-MYC blocking peptides efficiently internalize into tumor cells to exert their functions. (A) For 1 hour 1 μM of PS-conjugated MYC (PS-MYC) and Gp130 (PS-Gp130) were incubated with cancer cells. PS-scramble MYC (PS-SC-MYC) was used as a control for PS-MYC. The peptide uptake was visualized by confocal microscopy and quantified by flow cytometry. Data are representative of 3 independent experiments (n = 3). (B) Upper panel: The binding of PS-Gp130 and STAT3 was examined by immunoprecipitation and Western blotting. PO-Gp130 was used as a control. For 4 hours prior to harvest, 1 μM of peptide was incubated with cells. Lower panel: PS-Gp130 inhibits IL-6–induced phosphorylation of STAT3 and p44/42 but not EGF-mediated signaling. The cells were preincubated with PS-Gp130 for 2 hours and then stimulated with 20 ng/mL of IL-6 or 30 ng/mL of EGF for 30 minutes before harvest and Western blotting. (C) Gene expression of STAT3 targets was examined by quantitative PCR after the treatment with 1 μM of PS-Gp130 with or without IL-6 stimulation as described above. Data shown are 3 independent experiments (n = 3); SD is shown. Unpaired Student’s t test; ***P < 0.005; **P < 0.01; *P < 0.05. (D) A total of 1 μM of PS-SC-MYC or PS-MYC was incubated with cells for 48 hours before the gene expression of MYC targets was examined by quantitative PCR. […]

Non-standard residues stand in square brackets, D forms with d. No end group written: not given here. pY = N[C@@H](Cc1ccc(OP(=O)(O)O)cc1)C(=O)O

T1 sequence (Q9UIA9 2-1087 limits assumed): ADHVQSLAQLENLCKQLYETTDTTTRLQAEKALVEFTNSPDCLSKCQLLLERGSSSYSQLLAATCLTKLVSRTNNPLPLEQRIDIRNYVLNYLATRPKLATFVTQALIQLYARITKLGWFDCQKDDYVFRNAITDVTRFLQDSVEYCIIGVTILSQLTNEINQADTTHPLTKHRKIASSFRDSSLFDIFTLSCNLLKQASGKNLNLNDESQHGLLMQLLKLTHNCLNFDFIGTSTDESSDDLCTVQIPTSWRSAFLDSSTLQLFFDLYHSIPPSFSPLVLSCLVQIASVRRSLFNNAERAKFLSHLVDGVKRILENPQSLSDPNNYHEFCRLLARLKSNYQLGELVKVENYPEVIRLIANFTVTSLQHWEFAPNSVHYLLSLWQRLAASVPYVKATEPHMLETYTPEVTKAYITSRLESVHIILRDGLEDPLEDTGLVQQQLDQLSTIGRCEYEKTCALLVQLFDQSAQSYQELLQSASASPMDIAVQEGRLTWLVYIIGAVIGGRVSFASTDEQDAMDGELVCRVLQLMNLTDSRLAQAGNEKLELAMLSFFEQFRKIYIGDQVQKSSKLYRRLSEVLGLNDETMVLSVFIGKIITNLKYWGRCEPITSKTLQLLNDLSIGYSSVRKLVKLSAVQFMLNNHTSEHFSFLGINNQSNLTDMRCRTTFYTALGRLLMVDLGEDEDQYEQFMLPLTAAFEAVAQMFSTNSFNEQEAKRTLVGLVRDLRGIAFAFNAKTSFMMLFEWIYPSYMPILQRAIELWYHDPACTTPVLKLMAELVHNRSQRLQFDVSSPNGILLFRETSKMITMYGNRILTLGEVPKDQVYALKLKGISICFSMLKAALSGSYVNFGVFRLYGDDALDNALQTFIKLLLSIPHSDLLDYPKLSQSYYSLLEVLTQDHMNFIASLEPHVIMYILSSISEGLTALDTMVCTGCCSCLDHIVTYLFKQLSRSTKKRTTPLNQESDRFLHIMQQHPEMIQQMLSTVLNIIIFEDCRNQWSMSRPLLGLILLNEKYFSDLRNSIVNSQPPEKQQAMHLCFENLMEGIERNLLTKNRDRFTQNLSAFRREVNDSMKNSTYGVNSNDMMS

Regarding “PDIPKEEAFGK685(Ac)YCRPESQEHPC-linker-T*C*C*A*T*G*A*G*C*T*T*C*C*T*G*A*T*G*C*T [PS-acet.-STAT3 peptide]”, the “IL-6–induced STAT3 activation (pY705 phosphorylation) in CD8+ T cells” value in the test on pY705-STAT3 is “downregulated”. Moreover, in test [1], the “STAT3 binding to exportin 7 in tumor tissues” value is “blocked” and the “binding to exportin 7 in tumor tissues” value was “bound”.

On to “PS-Gp130: PS-conjugated Gp130 peptide (amino acids 901–910) with phospho-Tyr905 (MPKS[pY]LPQTV; also: phosphorothioate oligonucleotide conjugate; UniProt P40189 901-910, looked up, fragment)”, for which the “IL-6–induced STAT3 phosphorylation” value in test [2] is “selectively inhibited”.

The values above are taken from PMC7934871 (JCI Insight, 2021).
